Test results as given in patent publication US4315020A, “Oxazoline (trifluoroethyl) amine” (Science Union et Cie, priority 1976, dated 1982).

Experiment: solubility
Format: physicochemical
Conditions: for solubility in the stoichiometric amount of N/10 hydrochloric acid: N/10 hydrochloric acid solution

FC(F)(F)C(NC1=NCCO1)c1ccc[nH]1 (racemic) [XVI, dl α-trifluoromethyl 2-[(pyrrolyl-2)methylamino] oxazoline]
solubility in the stoichiometric amount of N/10 hydrochloric acid (stoichiometric amount): soluble

Cc1ccccc1C(NC1=NCCO1)C(F)(F)F (racemic) [XIX, dl 2-[(2-methylphenyl) ααα-trifluoroethyl]amino oxazoline]
solubility in the aqueous solution of mineral acids (aqueous mineral acids): soluble | solubility in the usual organic solvents (usual organic solvents): soluble

CN(C1=NCCO1)C(c1ccccc1)C(F)(F)F (racemic) [XV, dl α-trifluoromethyl 2-(N-methylbenzylamino) oxazoline]
solubility in an aqueous solution of hydrochloric acid (aqueous hydrochloric acid): soluble | solubility in the most of the organic solvents (most organic solvents): soluble

FC(F)(F)C(NC1=NCCN1)c1ccccc1 (racemic) [I, 2(α-phenyl trifluoroethylamino) imidazoline]
solubility in the stoichiometric amount of N/10 hydrochloric acid (stoichiometric amount): soluble

Cn1cccc1C(NC1=NCCO1)C(F)(F)F (racemic) [XIV, dl α-trifluoromethyl 2-[(N-methylpyrrolyl-2)methylamino] oxazoline]
solubility in a N/10 aqueous solution of hydrochloric acid (N/10 aqueous hydrochloric acid): soluble

FC(F)(F)C(NC1=NCCO1)c1ccco1 (racemic) [X, dl 2-[α-trifluoromethyl (furyl-2)methylamino] oxazoline]
solubility in the stoichiometric amount of dilute hydrochloric acid (stoichiometric amount, dilute hydrochloric acid): soluble

FC(F)(F)C(NC1=NCCO1)c1ccccc1 (single isomer, unassigned) [XII, levorotatory 2-[α-trifluoromethylbenzylamino] oxazoline]
solubility in dilute hydrochloric acid (dilute hydrochloric acid): solbuble
